Measured values reported in the supplement of paper PMC10307832.

Legend:
Experiment in all cases: relative viability (nuclei count vs DMSO), 5 days (fraction); higher = more cells survive
VX-11e + Palbociclib = compound: CC1=CN=C(N=C1C2=CNC(=C2)C(=O)N[C@H](CO)C3=CC(=CC=C3)Cl)NC4=C(C=C(C=C4)F)Cl [VX-11e] + CC(=O)c1c(C)c2cnc(Nc3ccc(N4CCNCC4)cn3)nc2n(C2CCCC2)c1=O [Palbociclib] (partner 0.5 µM)
Outline: (§1)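 Lung cancer cell lines were pin-tool dosed in 1536-well plates on the day after seeding, with either a lone drug or a fixed anchor-drug dose plus five library-drug doses (not always all listed) in √10 steps. Nuclei were counted on 4× images after 5 days. Relative viability is the ratio of treated-well to vehicle-well nuclei counts, with each value a median of duplicate plates.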

VX-11e + Pictilisib = compound: CC1=CN=C(N=C1C2=CNC(=C2)C(=O)N[C@H](CO)C3=CC(=CC=C3)Cl)NC4=C(C=C(C=C4)F)Cl [VX-11e] + CS(=O)(=O)N1CCN(Cc2cc3nc(-c4cccc5[nH]ncc45)nc(N4CCOCC4)c3s2)CC1 [Pictilisib] (partner 1 µM)
Outline: as §1

VX-11e + Phenformin = compound: CC1=CN=C(N=C1C2=CNC(=C2)C(=O)N[C@H](CO)C3=CC(=CC=C3)Cl)NC4=C(C=C(C=C4)F)Cl [VX-11e] + N=C(N)NC(=N)NCCc1ccccc1 [Phenformin] (partner 250 µM)
Outline: as §1

VX-11e + Decitabine = compound: CC1=CN=C(N=C1C2=CNC(=C2)C(=O)N[C@H](CO)C3=CC(=CC=C3)Cl)NC4=C(C=C(C=C4)F)Cl [VX-11e] + Nc1ncn([C@H]2C[C@H](O)[C@@H](CO)O2)c(=O)n1 [Decitabine] (partner 2 µM)
Outline: as §1

Cell Line | relative viability (VX-11e + Palbociclib; first compound 0.04 µM) | relative viability (VX-11e + Palbociclib; first compound 0.1265 µM) | relative viability (VX-11e + Palbociclib; first compound 0.4 µM) | relative viability (VX-11e + Palbociclib; first compound 1.265 µM) | relative viability (VX-11e + Palbociclib; first compound 4 µM) | relative viability (VX-11e + Pictilisib; first compound 0.04 µM) | relative viability (VX-11e + Pictilisib; first compound 0.1265 µM) | relative viability (VX-11e + Pictilisib; first compound 0.4 µM) | relative viability (VX-11e + Pictilisib; first compound 1.265 µM) | relative viability (VX-11e + Pictilisib; first compound 4 µM) | relative viability (VX-11e + Phenformin; first compound 0.04 µM) | relative viability (VX-11e + Phenformin; first compound 0.1265 µM) | relative viability (VX-11e + Phenformin; first compound 1.265 µM) | relative viability (VX-11e + Phenformin; first compound 4 µM) | relative viability (VX-11e + Decitabine; first compound 0.04 µM) | relative viability (VX-11e + Decitabine; first compound 0.1265 µM) | relative viability (VX-11e + Decitabine; first compound 0.4 µM) | relative viability (VX-11e + Decitabine; first compound 1.265 µM) | relative viability (VX-11e + Decitabine; first compound 4 µM) | relative viability (VX-11e + Phenformin; first compound 0.4 µM)
NCI-H23 | 0.453 | 0.416 | 0.425 | 0.382 | 0.203 | 0.35 | 0.437 | 0.176 | 0.31 | 0.19 | 0.682 | 0.701 | 0.666 | 0.436 | 0.279 | 0.312 | 0.306 | 0.284 | 0.22 | –
NCI-H2405 | 0.579 | 0.506 | 0.385 | 0.513 | 0.328 | 0.3 | 0.388 | – | 0.412 | 0.125 | 0.393 | 0.403 | 0.321 | 0.169 | 0.761 | 0.733 | 0.305 | 0.776 | 0.443 | 0.233
RERF-LC-KJ | 1.11 | 1.02 | 0.981 | 0.952 | 0.908 | 0.63 | 0.521 | 0.614 | 0.641 | 0.484 | 0.403 | 0.427 | 0.372 | 0.315 | 0.707 | 0.703 | 0.592 | 0.807 | 0.62 | 0.408
PC-14 | 0.551 | 0.497 | 0.374 | 0.252 | 0.19 | 0.661 | 0.619 | 0.583 | 0.494 | 0.207 | 0.539 | 0.552 | 0.472 | 0.239 | 0.243 | 0.19 | 0.202 | 0.247 | 0.235 | 0.196
NCI-H661 | 0.375 | 0.406 | 0.348 | 0.402 | 0.379 | 0.324 | 0.462 | 0.4 | 0.403 | 0.363 | 0.242 | 0.324 | 0.293 | 0.27 | 0.514 | 0.491 | 0.502 | 0.52 | 0.432 | 0.275
EKVX | 0.397 | 0.378 | 0.452 | 0.368 | 0.19 | 0.447 | 0.545 | 0.461 | 0.404 | 0.19 | 0.211 | 0.237 | 0.216 | 0.197 | 0.331 | 0.397 | 0.298 | 0.394 | 0.232 | 0.13
PC-3 [JPC-3] | 0.565 | 0.558 | 0.519 | 0.624 | 0.546 | 0.608 | 0.684 | 0.703 | 0.644 | 0.635 | 0.436 | 0.476 | 0.489 | 0.414 | 0.839 | 0.813 | 0.809 | 0.788 | 0.705 | 0.486
NCI-H1355 | 0.432 | 0.382 | 0.382 | 0.319 | 0.216 | 0.263 | 0.194 | 0.166 | 0.3 | 0.232 | 0.417 | 0.435 | 0.379 | 0.348 | 0.401 | 0.376 | 0.34 | 0.413 | 0.31 | 0.34
ChaGo-K-1 | 0.982 | 0.821 | 0.915 | 0.947 | 0.845 | 0.351 | – | 0.587 | 0.567 | 0.569 | 0.435 | 0.478 | 0.472 | 0.407 | 0.534 | 0.495 | 0.511 | 0.51 | 0.5 | 0.382
NCI-H1395 | 0.593 | 0.612 | – | 0.605 | 0.483 | 0.682 | 0.551 | 0.501 | 0.59 | 0.435 | 0.42 | 0.405 | 0.461 | 0.398 | 0.734 | 0.721 | – | 0.695 | 0.62 | 0.453
NCI-H1563 | – | – | – | – | – | 0.662 | 0.538 | 0.559 | 0.656 | 0.625 | 0.647 | 0.607 | 0.713 | 0.806 | – | – | – | – | – | 0.549
NCI-H1648 | – | 0.305 | 0.301 | 0.331 | 0.314 | – | – | – | – | – | – | – | – | – | – | 0.584 | 0.491 | 0.654 | 0.42 | –
NCI-H596 | – | – | – | – | – | 0.377 | 0.429 | 0.378 | 0.431 | 0.319 | 0.648 | 0.791 | 0.369 | 0.599 | 0.864 | 1.05 | 1.01 | 0.998 | 0.834 | 0.8
Calu-6 | – | – | – | – | – | 1.03 | 0.874 | 0.907 | 0.261 | 0.0991 | – | – | – | – | – | – | – | – | – | –
SW 900 | 0.421 | 0.422 | – | 0.518 | 0.482 | – | – | – | – | – | 0.504 | 0.456 | 0.213 | 0.318 | 0.443 | 0.491 | – | 0.529 | 0.455 | 0.216
NCI-H1299 | – | – | – | – | – | 0.851 | 0.821 | 0.681 | 0.262 | 0.119 | – | – | – | – | – | – | – | – | – | –
NCI-H2342 | – | 0.542 | 0.521 | 0.568 | 0.515 | – | – | – | – | – | 0.438 | 0.614 | 0.782 | 0.583 | – | 0.797 | 0.752 | 0.787 | 0.6 | 0.534
IA-LM | – | – | – | – | – | 0.327 | 0.263 | 0.199 | 0.0879 | 0.0695 | – | – | – | – | – | – | – | – | – | –
NCI-H1703 | – | – | – | – | – | – | 0.257 | 0.234 | 0.268 | 0.258 | – | – | – | – | – | – | – | – | – | –
CAL-12T | 0.391 | 0.433 | 0.331 | 0.141 | 0.116 | – | – | 0.393 | 0.524 | 0.295 | 0.677 | 0.507 | 0.41 | 0.194 | – | – | – | – | – | 0.504
NCI-H522 | 0.782 | 0.924 | 0.861 | 0.717 | 0.733 | – | – | – | – | – | 0.609 | 0.621 | 0.48 | 0.656 | 0.641 | 0.648 | 0.648 | 0.599 | 0.573 | 0.558
NCI-H2228 | 0.832 | 0.731 | 0.165 | 0.528 | 0.199 | 0.355 | 0.464 | 0.0994 | 0.854 | 0.188 | 0.352 | 0.376 | 0.151 | 0.135 | – | – | – | – | – | –
